Data as given in PMC4718634, “Murine GPRC6A Mediates Cellular Responses to L-Amino Acids, but Not Osteocalcin Variants” (PLoS ONE, 2016).
“Also recorded” adds a separate entry of the source.

Legend:
mGPRC6A (mouse GPRC6A) = target: T1, mGPRC6A (mouse GPRC6A) (Mus musculus, UniProt Q8K4Z6); experiment: Ca^2+i mobilisation, FlpIn-TREx-HEK293-mGPRC6A cells; format: cell-based
T1 sequence (Q8K4Z6 21-928): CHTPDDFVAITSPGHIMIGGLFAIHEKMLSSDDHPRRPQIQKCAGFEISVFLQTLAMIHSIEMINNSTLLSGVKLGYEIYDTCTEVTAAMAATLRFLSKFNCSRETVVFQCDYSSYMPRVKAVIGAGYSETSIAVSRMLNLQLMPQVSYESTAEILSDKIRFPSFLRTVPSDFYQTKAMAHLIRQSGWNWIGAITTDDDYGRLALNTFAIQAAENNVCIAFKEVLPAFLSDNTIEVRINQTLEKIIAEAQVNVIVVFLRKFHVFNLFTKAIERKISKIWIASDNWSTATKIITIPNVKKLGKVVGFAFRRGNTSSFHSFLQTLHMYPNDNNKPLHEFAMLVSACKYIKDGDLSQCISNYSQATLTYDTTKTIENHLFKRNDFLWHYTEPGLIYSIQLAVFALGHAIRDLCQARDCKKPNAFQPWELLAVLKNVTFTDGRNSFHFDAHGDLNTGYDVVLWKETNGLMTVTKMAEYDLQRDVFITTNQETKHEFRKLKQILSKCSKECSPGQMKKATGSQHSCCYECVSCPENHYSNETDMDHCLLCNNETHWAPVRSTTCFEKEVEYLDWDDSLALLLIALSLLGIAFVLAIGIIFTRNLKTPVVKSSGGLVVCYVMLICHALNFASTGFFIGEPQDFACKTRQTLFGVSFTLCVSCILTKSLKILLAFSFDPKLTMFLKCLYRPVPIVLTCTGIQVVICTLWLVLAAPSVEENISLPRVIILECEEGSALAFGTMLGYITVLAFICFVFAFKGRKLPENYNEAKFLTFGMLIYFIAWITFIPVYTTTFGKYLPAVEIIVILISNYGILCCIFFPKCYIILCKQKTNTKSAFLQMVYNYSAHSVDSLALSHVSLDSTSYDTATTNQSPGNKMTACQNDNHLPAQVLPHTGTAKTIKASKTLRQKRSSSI
In short: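 Tetracycline-induced FlpIn-TREx-HEK293 cells expressing mouse GPRC6A, transiently transfected with Gαq or GαqG66D and serum-starved overnight, were loaded with 1 μM Fluo-4-AM 1 h at 37 °C in pH 7.4 buffer with probenecid.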

INS-1(832) cells = experiment: Label-free cell impedance, INS-1(832) cells; format: cell-based, rat; conditions: S1 Table
In short: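 INS-1(832) cells seeded at 2 x 10^4/well, cultured 48 h in 11.1 mM glucose RPMI, then switched to EBSS containing 2.8 mM glucose for 2 h. Compound added in the same buffer; impedance captured and analysed as for HEK293 cells.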

mouse GPRC6A = conditions: ref [13]; cited from earlier work
From the text: Additional interest in GPRC6A has emerged due to several studies reporting that it mediates the metabolic and endocrine effects of the de-carboxylated form of the osteoblast-derived peptide, osteocalcin (OCN). […] Given these discrepancies, we sought to evaluate the pharmacology of human and mouse GPRC6A in a range of cell signalling assays ...

Row | Compound | potency at murine GPRC6A (calcium and inositol phosphate, words) (mGPRC6A (mouse GPRC6A); calcium mobilisation and inositol phosphate accumulation, Discussion) | rank order of potency, Ca^2+ mobilisation (mGPRC6A (mouse GPRC6A); co-expressing GαqG66D, Fig 1D) | EC50 (mGPRC6A (mouse GPRC6A); co-expressing GαqG66D, Fluo-4, normalised to 100 μM ATP, pEC50 ± SEM, printed in picture Fig 1D, read-out: pEC50, Ca^2+ mobilisation (converted)) | xCELLigence response (summary) (INS-1(832) cells) | agonist activity of OCN at mouse GPRC6A (mouse GPRC6A)
1 | NCCC[C@H](N)C(=O)O [L-ornithine] | most potent agonists | L-ornithine > L-arginine = L-lysine | 3.16 µM | – | –
2 | OCN: osteoblast-derived peptide, osteocalcin; variant not specified at the place (YLYQWLGAPVPYPDPLEPRREVCELNPDCDELADHIGFQEAYRRFYGPV; UniProt P02818 52-100, looked up) | – | – | – | xCELLigence – response to OCN | no agonist effect of OCN was evident in any of the assays profiled; also recorded: failed to replicate either the agonist activity of OCN
